Laboratory results as given in patent US6875786B2, “Thrombopoietin mimetics” (SmithKline Beecham Corporation, priority 2001, dated 2005).

Tested on: 32D-mpl cells
Assay: proliferation of 32D-mpl cells
Type: cell-based
Experimental: The compound of Example 1, promoted the proliferation of 32D-mpl cells at a concentration of 0.03 to 30 uM.

Q: How did the EC50 turn out when `CC1=NN(c2ccc(C)c(C)c2)C(=O)C1=CNc1cccc(-c2cccc(C(=O)O)c2)c1O` [Example 1, 3′-{[1-(3.4-Dimethylphenyl)-3-methyl-5-oxo-1,5-dihydropyrazol-4-ylidenemethyl]amino}-2′-hydroxybiphenyl-3-carboxylic Acid] was run?
A: 670 nM

Q: And the “% TPOmax” value (relative to TPO maximum)?
A: 85%
